Laboratory results from patent US12653183B2, “Hygroscopic salt microencapsulation, and uses thereof” (priority 2020, dated 2026).

Assays:
feral pigs [1] = settings: cited from earlier work
feral pigs [2] = assay: LD50 and time to death of 1080 in feral pigs; settings: feral pigs vs wild dogs
[3] = pH<7

Structure (SMILES)	time for pigs to die (feral pigs [1])	multiple of the dose used for canid pests (feral pigs [2])	stability of sodium nitrite in the bait composition [3]
O=C(O)CF [compound 1080, sodium fluoroacetate]	up to 12 hours	≤ 40 fold	
O=NO [sodium nitrite]			unstable
